pIC50: −log10 of the molar value. Read-outs that look alike come from different tables or passages of the source.
Tests used:
P-gp (MDR1) = assay: MDR1-MDCK Efflux Ratio Assay; assay type: in vitro ADME; settings: dog, read-out: MDR1-MDCK Efflux Ratio (B-A/A-B)
Protocol: MDR1-MDCK cell monolayers were grown to confluence on microporous polyester membranes in 96-well Corning insert plates. The permeability assay buffer was Hanks' Balanced Salt Solution containing 10 mM HEPES at pH of 7.4. Loperamide (1 μM) was used as a positive control P-gp substrate. Propranolol and Bestatin (1 μM) were used as high and low permeability comparators, respectively. Test compounds or positive control P-gp substrate/permeability comprators were added to respective apical and basolateral chambers for bidirectional assessment of permeability. Receiver buffer (transport buffer supplemented with 1% bovine serum albumin) was added to respective receiver chambers. MDR1-MDCK cells were incubated with test compounds at 37° C. with 5% CO2 for 2 hr. Samples were collected from the donor chamber at both 0 and 120 minutes, and from the receiver chamber at 120 minutes. Test and control compound concentrations were determined using LC-MS/MS analysis. Each determination was performed in triplicate. The apparent permeability (Papp), efflux ratio and mass balance (percent recovery) were calculated as follows: [formula] where: dCr/dt is the cumulative concentration in the receiver compartment versus time in μM s^−1 Vr is the volume of the receiver compartment in cm^3 Vd is the volume of the donor compartment in cm^3 A is the area of the insert (0.143 cm^2 for 96-well insert) CE is the estimated experimental concentration (Time=0) of the dosing solution Cr^final is the concentration of the receiver at the end of the incubation period Cd^final is the concentration of the donor at the end of the incubation period.

[1] = target: OGA (S400 O-GLCNAC), HEK-293T cells transfected with Tau-V5 (Homo sapiens (Human), UniProt O60502); assay: Cellular OGA-Tau MSD Assay; assay type: cell-based
In short: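 HEK-293T cells transfected with OGA and Tau-V5 plasmids were treated overnight at 37° C with a 10-point, 3-fold titration from 1 uM. Lysates went onto V5-antibody MSD plates to capture Tau, probed with a Tau O-GlcNAc antibody and read by electrochemiluminescence; IC50 from a 4-parameter fit.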

[2] = target: Recombinant full length human OGA enzyme (Homo sapiens (Human), UniProt O60502); assay: OGA Enzyme Inhibition Biochemical Assay; settings: 1 nM OGA, 100 μM 4-MUGlcNAc, pH 6.4
In short: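 Full-length recombinant human OGA with fluorogenic 4-MUGlcNAc in McIlvaine buffer pH 6.4, 0.01% BSA; 90 min at room temperature, glycine pH 10 quench, fluorescence Ex 355/Em 460 nm. 10-point, 4-fold dilution from 20 μM; 4-parameter variable-slope fit.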

[3] = Rat Liver Microsome Stability Assay; assay type: in vitro ADME; settings: rat liver microsomes, 1 uM compound
[4] = MDCK-MDR1, pH 7.4, MDR1-MDCK cells, 2 hr, pH 7.4
[5] = HEK-293T cells, Tau-S400-GlcNAc MSD readout

Recombinant full length human OGA enzyme, sequence (O60502 whole entry): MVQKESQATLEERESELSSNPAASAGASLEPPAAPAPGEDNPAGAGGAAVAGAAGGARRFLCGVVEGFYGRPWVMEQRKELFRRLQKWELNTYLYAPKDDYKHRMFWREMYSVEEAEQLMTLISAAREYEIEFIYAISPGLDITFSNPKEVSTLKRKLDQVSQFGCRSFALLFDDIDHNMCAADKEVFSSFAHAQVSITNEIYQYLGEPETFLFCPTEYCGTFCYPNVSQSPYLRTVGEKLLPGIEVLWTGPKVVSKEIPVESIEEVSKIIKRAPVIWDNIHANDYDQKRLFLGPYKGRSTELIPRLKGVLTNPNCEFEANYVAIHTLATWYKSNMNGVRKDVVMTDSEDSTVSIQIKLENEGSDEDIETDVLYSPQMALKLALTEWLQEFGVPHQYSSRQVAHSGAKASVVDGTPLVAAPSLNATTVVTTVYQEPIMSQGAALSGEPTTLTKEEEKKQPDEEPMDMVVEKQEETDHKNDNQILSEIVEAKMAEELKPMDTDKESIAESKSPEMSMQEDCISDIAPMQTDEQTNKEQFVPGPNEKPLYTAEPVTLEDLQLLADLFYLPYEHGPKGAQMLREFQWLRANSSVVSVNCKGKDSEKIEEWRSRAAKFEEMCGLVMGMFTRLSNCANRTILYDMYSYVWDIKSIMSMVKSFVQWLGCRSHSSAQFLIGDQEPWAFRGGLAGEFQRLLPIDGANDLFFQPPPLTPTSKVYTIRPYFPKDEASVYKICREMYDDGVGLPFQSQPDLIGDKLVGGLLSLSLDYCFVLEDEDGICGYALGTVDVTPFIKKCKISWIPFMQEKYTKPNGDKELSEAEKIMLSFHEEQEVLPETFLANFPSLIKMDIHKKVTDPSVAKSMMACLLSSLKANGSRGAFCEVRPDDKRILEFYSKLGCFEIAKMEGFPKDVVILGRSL
OGA (S400 O-GLCNAC), HEK-293T cells transfected with Tau-V5, sequence (O60502 whole entry): as above

Compound: CC(=O)Nc1nc(F)c(CN2C[C@H](Oc3ncc(Cl)cn3)C[C@@H]2C)s1 [Example 1-95, N-(5-(((2S,4R)-4-((5-chloropyrimidin-2-yl)oxy)-2-methylpyrrolidin-1-yl)methyl)-4-fluorothiazol-2-yl)acetamide]
- efflux ratio at 2 h (P-gp (MDR1); [4]): 3.6
- pIC50 [1, 5]: 9.00
- pIC50 [2]: > 9.00
- RLM % Qh (%) [3]: 72%

Compound: COc1cc(O[C@H]2CCCN(Cc3cnc(NC(C)=O)s3)C2)ncn1 [Example 1-41, (S)—N-(5-((3-((6-methoxypyrimidin-4-yl)oxy)piperidin-1-yl)methyl)thiazol-2-yl)acetamide]
- efflux ratio at 2 h (P-gp (MDR1); [4]): 4.3
- pIC50 [1, 5]: 7.54
- pIC50 [2]: 7.62
- RLM % Qh (%) [3]: 80%

Compound: COc1cnc(O[C@@H]2C[C@H](C)N(Cc3sc(NC(C)=O)nc3F)C2)nc1 [Example 1-89, N-(4-fluoro-5-(((2S,4R)-4-((5-methoxypyrimidin-2-yl)oxy)-2-methylpyrrolidin-1-yl)methyl)thiazol-2-yl)acetamide]
- efflux ratio at 2 h (P-gp (MDR1); [4]): 19.7
- pIC50 [1, 5]: > 9.00
- pIC50 [2]: > 9.00
- RLM % Qh (%) [3]: 66%

Compound: CC(=O)Nc1ncc(CN2C[C@H](Oc3cc(OC(C)C)ncn3)C[C@@H]2C)s1 [Example 1-127, N-(5-(((2S,4R)-4-((6-isopropoxypyrimidin-4-yl)oxy)-2-methylpyrrolidin-1-yl)methyl)thiazol-2-yl)acetamide]
- efflux ratio at 2 h (P-gp (MDR1); [4]): 3.1
- pIC50 [1, 5]: 8.10
- pIC50 [2]: 8.72
- RLM % Qh (%) [3]: 62%

Compound: CC(=O)Nc1ncc(CN2C[C@H](Oc3cc(NC(C)C)ncn3)C[C@@H]2C)s1 [Example 1-136, N-(5-(((2S,4R)-4-((6-(isopropylamino)pyrimidin-4-yl)oxy)-2-methylpyrrolidin-1-yl)methyl)thiazol-2-yl)acetamide]
- efflux ratio at 2 h (P-gp (MDR1); [4]): 32
- pIC50 [1, 5]: 8.70
- pIC50 [2]: > 9.00
- RLM % Qh (%) [3]: 24%

Compound: [2H]C([2H])(c1cnc(NC(C)=O)s1)N1C[C@H](Oc2cc(OC)ncn2)C[C@@H]1C (single isomer, unassigned) [Example 1-160]
- efflux ratio at 2 h (P-gp (MDR1); [4]): 4.6
- pIC50 [1, 5]: 8.52
- pIC50 [2]: > 9.00
- RLM % Qh (%) [3]: 29%

Compound: COc1cc(O[C@@H]2CCCN(Cc3sc(NC(C)=O)nc3F)C2)ncn1 [Example 1-33, (R)—N-(4-fluoro-5-((3-((6-methoxypyrimidin-4-yl)oxy)piperidin-1-yl)methyl)thiazol-2-yl)acetamide]
- efflux ratio at 2 h (P-gp (MDR1); [4]): 2.9
- pIC50 [1, 5]: 7.29
- pIC50 [2]: 7.77
- RLM % Qh (%) [3]: 65%

Compound: CC(=O)Nc1ncc(CN2C[C@@H](Oc3ccc(F)cn3)C[C@H]2C)s1 [Example 1-8, N-(5-(((2R,4S)-4-((5-fluoropyridin-2-yl)oxy)-2-methylpyrrolidin-1-yl)methyl)thiazol-2-yl)acetamide]
- efflux ratio at 2 h (P-gp (MDR1); [4]): 2.3
- pIC50 [1, 5]: < 6.00
- pIC50 [2]: 6.34
- RLM % Qh (%) [3]: 76%

Compound: CC(=O)Nc1nc(F)c(CN2C[C@H](Oc3cc(OC4COC4)ncn3)C[C@@H]2C)s1 [Example 1-140, N-(4-fluoro-5-(((2S,4R)-2-methyl-4-((6-(oxetan-3-yloxy)pyrimidin-4-yl)oxy)pyrrolidin-1-yl)methyl)thiazol-2-yl)acetamide]
- efflux ratio at 2 h (P-gp (MDR1); [4]): 8.4
- pIC50 [1, 5]: 8.40
- pIC50 [2]: > 9.00
- RLM % Qh (%) [3]: 43%

Compound: CC(=O)Nc1ncc(CN2C[C@@H](Oc3ccc(F)cn3)C[C@@H]2C)s1 [Example 1-9, N-(5-(((2S,4S)-4-((5-fluoropyridin-2-yl)oxy)-2-methylpyrrolidin-1-yl)methyl)thiazol-2-yl)acetamide]
- efflux ratio at 2 h (P-gp (MDR1); [4]): 1.9
- pIC50 [1, 5]: 7.49
- pIC50 [2]: 7.41
- RLM % Qh (%) [3]: 87%

Compound: CC(=O)Nc1nc(F)c(CN2C[C@H](Oc3cc(N4CCOCC4)ncn3)C[C@@H]2C)s1 [Example 1-103, N-(4-fluoro-5-(((2S,4R)-2-methyl-4-((6-morpholinopyrimidin-4-yl)oxy)pyrrolidin-1-yl)methyl)thiazol-2-yl)acetamide]
- efflux ratio at 2 h (P-gp (MDR1); [4]): 15.9
- pIC50 [1, 5]: 8.52
- pIC50 [2]: > 9.00
- RLM % Qh (%) [3]: 45%

Compound: CC(=O)Nc1nc(F)c(CN2C[C@H](Oc3cc(F)c(F)cn3)C[C@@H]2C)s1 [Example 1-102, N-(5-(((2S,4R)-4-((4,5-difluoropyridin-2-yl)oxy)-2-methylpyrrolidin-1-yl)methyl)-4-fluorothiazol-2-yl)acetamide]
- efflux ratio at 2 h (P-gp (MDR1); [4]): 1.2
- pIC50 [1, 5]: 8.70
- pIC50 [2]: > 9.00
- RLM % Qh (%) [3]: 82%

Compound: CC(=O)Nc1nc(F)c(CN2C[C@H](Oc3cnc(N4CCOCC4)cn3)C[C@@H]2C)s1 [Example 1-142, N-(4-fluoro-5-(((2S,4R)-2-methyl-4-((5-morpholinopyrazin-2-yl)oxy)pyrrolidin-1-yl)methyl)thiazol-2-yl)acetamide]
- efflux ratio at 2 h (P-gp (MDR1); [4]): 8.3
- pIC50 [1, 5]: 8.70
- pIC50 [2]: > 9.00
- RLM % Qh (%) [3]: 59%

Compound: CC(=O)Nc1ncc(CN2C[C@@H](Oc3cc(C)nc(C)c3)C[C@@H]2C)s1 [Example 1-62, N-(5-(((2S,4S)-4-((2,6-dimethylpyridin-4-yl)oxy)-2-methylpyrrolidin-1-yl)methyl)thiazol-2-yl)acetamide]
- efflux ratio at 2 h (P-gp (MDR1); [4]): 65
- pIC50 [1, 5]: 7.05
- pIC50 [2]: 7.59
- RLM % Qh (%) [3]: 32%

Compound: CC(=O)Nc1ncc(CN2C[C@H](Oc3cc(C)nc(C)n3)C[C@@H]2C)s1 [Example 1-128, N-(5-(((2S,4R)-4-((2,6-dimethylpyrimidin-4-yl)oxy)-2-methylpyrrolidin-1-yl)methyl)thiazol-2-yl)acetamide]
- efflux ratio at 2 h (P-gp (MDR1); [4]): 26.3
- pIC50 [1, 5]: 9.00
- pIC50 [2]: > 9.00
- RLM % Qh (%) [3]: 48%

Compound: COc1ccc(O[C@@H]2C[C@H](C)N(Cc3cnc(NC(C)=O)s3)C2)nn1 [Example 1-68, N-(5-(((2S,4R)-4-((6-methoxypyridazin-3-yl)oxy)-2-methylpyrrolidin-1-yl)methyl)thiazol-2-yl)acetamide]
- efflux ratio at 2 h (P-gp (MDR1); [4]): 28.6
- pIC50 [1, 5]: 8.70
- pIC50 [2]: > 9.00
- RLM % Qh (%) [3]: 34%

Compound: COc1cc(O[C@@H]2C[C@H](C)N(Cc3sc(NC(C)=O)nc3F)C2)ncc1F [Example 1-118, N-(4-fluoro-5-(((2S,4R)-4-((5-fluoro-4-methoxypyridin-2-yl)oxy)-2-methylpyrrolidin-1-yl)methyl)thiazol-2-yl)acetamide]
- efflux ratio at 2 h (P-gp (MDR1); [4]): 3.5
- pIC50 [1, 5]: 9.00
- pIC50 [2]: > 9.00
- RLM % Qh (%) [3]: 85%

Compound: COc1cc(O[C@@H]2CC[C@H](C)N(Cc3cnc(NC(C)=O)s3)C2)ncn1 [Example 1-44, N-(5-(((2S,5R)-5-((6-methoxypyrimidin-4-yl)oxy)-2-methylpiperidin-1-yl)methyl)thiazol-2-yl)acetamide]
- efflux ratio at 2 h (P-gp (MDR1); [4]): 9.3
- pIC50 [1, 5]: 8.70
- pIC50 [2]: > 9.00
- RLM % Qh (%) [3]: 88%

Compound: CO[C@H]1C[C@@H](Oc2cc(O[C@@H]3C[C@H](C)N(Cc4cnc(NC(C)=O)s4)C3)ncn2)C1 [Example 1-123, N-(5-(((2S,4R)-4-((6-((1s,3S)-3-methoxycyclobutoxy)pyrimidin-4-yl)oxy)-2-methylpyrrolidin-1-yl)methyl)thiazol-2-yl)acetamide]
- efflux ratio at 2 h (P-gp (MDR1); [4]): 5.7
- pIC50 [1, 5]: 8.30
- pIC50 [2]: 8.96
- RLM % Qh (%) [3]: 55%

Compound: COc1ccnc(O[C@@H]2C[C@H](C)N(Cc3sc(NC(C)=O)nc3F)C2)n1 [Example 1-91, N-(4-fluoro-5-(((2S,4R)-4-((4-methoxypyrimidin-2-yl)oxy)-2-methylpyrrolidin-1-yl)methyl)thiazol-2-yl)acetamide]
- efflux ratio at 2 h (P-gp (MDR1); [4]): 9.9
- pIC50 [1, 5]: > 9.00
- pIC50 [2]: > 9.00
- RLM % Qh (%) [3]: 81%

Compound: CC(=O)Nc1ncc(CN2C[C@H](Oc3ccnc(OC(F)F)c3)C[C@@H]2C)s1 [Example 1-20, N-(5-(((2S,4R)-4-((2-(difluoromethoxy)pyridin-4-yl)oxy)-2-methylpyrrolidin-1-yl)methyl)thiazol-2-yl)acetamide]
- efflux ratio at 2 h (P-gp (MDR1); [4]): 2.9
- efflux ratio at 2 h (P-gp (MDR1); MDCK-MDR1, pH 7.4, repeated assay, value marked with asterisk (*)): 3
- pIC50 ([1]; repeated assay, value marked with asterisk (*)): 8.15
- pIC50 [2]: > 9.00
- RLM % Qh (%) [3]: 63%

Compound: CC(=O)Nc1nc(F)c(CN2C[C@H](Oc3cc(C)nc(C)c3)CC[C@@H]2C)s1 [Example 1-57, N-(5-(((2S,5R)-5-((2,6-dimethylpyridin-4-yl)oxy)-2-methylpiperidin-1-yl)methyl)-4-fluorothiazol-2-yl)acetamide]
- efflux ratio at 2 h (P-gp (MDR1); [4]): 26.4
- pIC50 [1, 5]: 8.52
- pIC50 [2]: > 9.00
- RLM % Qh (%) [3]: 93%

— patent US20240308995A1, “O-GLYCOPROTEIN-2-ACETAMIDO-2-DEOXY-3-D-GLUCOPYRANOSIDASE INHIBITORS” (BIOGEN MA INC., priority 2018, published 2024)
